From article PMC9046208, “Foldamers reveal and validate therapeutic targets associated with toxic α-synuclein self-assembly” (Nature Communications, 2022)

What was measured:
[1] = test system: primary rat hippocampal neurons; assay: LDH release assay, primary rat hippocampal neurons; format: cell-based; conditions: PD + SK-129 PMCA sample, 21 days; PD sample ~8-fold higher than control
Experimental: The rat embryos (both male and female) at embryonic day 18 were used to prepare the primary neurons according to previously published protocol. After removing all the meninges, the hippocampi were isolated from the fetal rat brain and kept in the dissection solution (1x HBSS, 10 mM HEPES buffer, 5 µg/mL Gentamicin, pH 7.3, Thermo Fisher Scientific, Waltham, MA). The hippocampi were minced and treated in the dissection solution containing 20 U/ml Papain (Worthington Biochemical Corp., Lakewood, NJ) and triturated in 50 µg/ml Dnase I (Sigma-Aldrich, St.Louis, MO). The isolated cells were plated on 1 mg/mL Poly-L-Lysine (Sigma-Aldrich, St.Louis, MO) coated μ-slide eight-well plate (Ibidi, Munich, Germany) at 200,000 cells/mL in neuron plating medium, which includes Minimum Essential Media (MEM)(Thermo Fisher Scientific, Waltham, MA) supplemented with 5% FBS (Thermo Fisher Scientific, Waltham, MA) and glucose (Sigma-Aldrich, St.Louis, MO). […]
The LDH assay was performed on the primary neurons treated with various conditions and incubated for 21 DIV. The release of LDH was measured using a Cytotox 96 Non-Radioactive Cytotoxicity Assay kit (Promega, Madison, WI) by following the instructions provided by the manufacturers. […] The absorbance of the media in the wells was measured at 490 nm using a 96-well plate reader.

NL5901 = assay: αS-YFP inclusion count in C elegans NL5901; format: in vivo; conditions: NL5901, 15 μM SK-129, day 8 of adulthood; untreated ~33
Experimental: The assay was carried out based on a previous protocol[57] with slight modifications. On day one, N2 and NL5901 strains were synchronized through the bleaching process involving egglay and the incubation of the eggs at an ambient temperature (~23 °C) on a solution of 3 mL NGM media in 60 mm culture plates (CytoOne, USA Scientific, Ocala, FL). The plates were seeded with 300 µL OP50 at an O.D. of 0.5 for 30 h. Simultaneously, a solution of 15 µM SK-129 (Stock solution concentration = 10 mM in DMSO) was made in M9 buffer and added to two sterilized 35 mm NGM solid media plates (Fisher Scientific, Pittsburgh, PA). The plates were already containing 2 mL of NGM solid media and 75 µM Fluorodeoxyuridine (FUDR) to prevent offspring in the worms. […] On day five, motility assay was conducted for worms under different conditions in duplicate using a WMicroTracker Arena plate reader (Phylumtech, Argentina) at ~23 °C for 1 h per day over a period of 12 days. […]
The worms from the NL5901 strain were treated in the absence and presence of SK-129 (15 µM SK-129, stock solution concentration = 10 mM in DMSO) as described in the paralysis experiment. […] For each experiment, at least 15 worms were used, and the inclusions were counted manually, and each condition consisted of at least four independent experiments.

COC(=O)c1cc(OCC(=O)O)c2cccc(NC(=O)c3cc(OC(C)C)c4cccc(NC(=O)c5cc(OCC(=O)O)c6cccc(NC(=O)c7cc(OC(C)C)c8cccc([N+](=O)[O-])c8n7)c6n5)c4n3)c2n1 [SK-129]
neurotoxicity (LDH release) [1]: did not observe any significant neurotoxicity | number of αS-YFP inclusions (NL5901): 8–9 inclusions/C elegans
